The assay concerns the target T1, human FXR (NR1H4) (Homo sapiens, UniProt Q96RI1).
T1 construct: host or cells: CHO (Chinese hamster ovary) reporter cells
T1 sequence (Q96RI1 1-486): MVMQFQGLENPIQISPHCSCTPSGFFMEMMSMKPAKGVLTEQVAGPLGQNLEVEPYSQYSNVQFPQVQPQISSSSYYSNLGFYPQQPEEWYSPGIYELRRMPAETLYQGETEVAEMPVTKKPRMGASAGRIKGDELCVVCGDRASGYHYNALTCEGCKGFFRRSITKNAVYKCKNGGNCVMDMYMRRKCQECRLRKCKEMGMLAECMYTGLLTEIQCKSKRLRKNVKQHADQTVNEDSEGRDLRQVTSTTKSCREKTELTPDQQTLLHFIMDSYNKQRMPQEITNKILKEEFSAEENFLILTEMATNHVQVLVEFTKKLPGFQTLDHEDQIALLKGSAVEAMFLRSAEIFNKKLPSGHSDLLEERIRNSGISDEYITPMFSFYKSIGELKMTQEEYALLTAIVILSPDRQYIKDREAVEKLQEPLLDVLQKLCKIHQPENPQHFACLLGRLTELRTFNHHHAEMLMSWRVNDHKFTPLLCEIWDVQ
Briefly: Human FXR (NR1H4) Assay (Gal4 promoter driven luciferase reporter, Indigo Bioscience kit IB00601). On Efficacy (%): normalized to CDCA set as 100%. Type of assay: cell-based. As to conditions: for pEC50: CHO reporter cells expressing human NR1H4, luciferase, 22 hours incubation, potency ranges; for Emax: read-out: Efficacy (%). The source says:
Human FXR (NR1H4) Assay Determination of a ligand mediated Gal4 promoter driven transactivation to quantify ligand binding mediated activation of FXR. FXR Reporter Assay kit purchased from Indigo Bioscience (Catalogue number: IB00601) to determine the potency and efficacy of compound developed by Enanta that can induce FXR activation. The principle application of this reporter assay system is to quantify functional activity of human FXR. The assay utilizes non-human mammalian cells, CHO (Chinese hamster ovary) cells engineered to express human NR1H4 protein (referred to as FXR). Reporter cells also incorporate the cDNA encoding beetle luciferase which catalyzes the substrates and yields photon emission. Luminescence intensity of the reaction is quantified using a plate-reading luminometer, Envision. Reporter Cells include the luciferase reporter gene functionally linked to an FXR responsive promoter. Thus, quantifying changes in luciferase expression in the treated reporter cells provides a sensitive surrogate measure of the changes in FXR activity. […] The assay is according to the manufacturer's instructions. […] Retrieve Reporter Cells from −80° C. storage. Perform a rapid thaw of the frozen cells by transferring a 10 ml volume of 37° C. cell recovery medium into the tube of frozen cells. Recap the tube of Reporter Cells and immediately place it in a 37° C. water bath for 5-10 minutes. Retrieve the tube of Reporter Cell Suspension from the water bath. Sanitize the outside surface of the tube with a 70% alcohol swab, and then transfer it into the cell culture hood. Dispense 90 μl of cell suspension into each well of the 96-well Assay Plate. Transfer the plate into 37° C. incubator, allowing the cells adherent to the bottom of the well. Dilute compounds in Dilution Plate (DP), and administrate to cells at Assay Plate (AP). DMSO content of the samples was kept at 0.2%. Cells were incubated for additional 22 hours before luciferase activities were measured. Thirty minutes before intending to quantify FXR activity, remove Detection Substrate and Detection Buffer from the refrigerator and place them in a low-light area so that they may equilibrate to room temperature. Remove the plate's lid and discard all media contents by ejecting it into an appropriate waste container. Gently tap the inverted plate onto a clean absorbent paper towel to remove residual droplets. Cells will remain tightly adhered to well bottoms. Add 100 μl of luciferase detection reagent to each well of the assay plate. Allow the assay plate to rest at room temperature for at least 5 minutes following the addition of LDR. Set the instrument (Envision) to perform a single 5 second “plate shake” prior to reading the first assay well. Read time may be 0.5 second (500 mSec) per well.
(In general: In a reporter assay the amount or activity of a reporter protein is the signal.)

pEC50: −log10 of the molar value. Some results are limits rather than exact numbers.

On to `CC(C)Oc1cc(C(=O)NS(=O)(=O)C2CC2)cc2sc(O[C@@H]3CO[C@H]4[C@@H]3OC[C@@H]4OCc3c(-c4c(Cl)cccc4Cl)noc3C3CC3)nc12` [Example 3, 2-(((3R,3aR,6S,6aR)-6-((5-cyclopropyl-3-(2,6-dichlorophenyl)isoxazol-4-yl)methoxy)hexahydrofuro[3,2-b]furan-3-yl)oxy)-N-(cyclopropylsulfonyl)-4-isopropoxybenzo[d]thiazole-6-carboxamide], for which the negative logarithm of the EC50 (pEC50) was 6.00 to 6.70 and the Emax came out at 33.5%.

For `O=C(O)c1ccc2nc(O[C@@H]3CO[C@H]4[C@@H]3OC[C@@H]4OCc3c(-c4c(Cl)cccc4Cl)noc3C3CC3)sc2c1` [Example 4, 2-(((3R,3aR,6S,6aR)-6-((5-cyclopropyl-3-(2,6-dichlorophenyl)isoxazol-4-yl)methoxy)hexahydrofuro[3,2-b]furan-3-yl)oxy)benzo[d]thiazole-6-carboxylic acid], the pEC50 was 6.00 to 6.70 and the Emax is 40%.

As to `O=C(O)c1cc(F)c2nc(O[C@@H]3CO[C@H]4[C@@H]3OC[C@H]4OCc3c(-c4c(Cl)cccc4Cl)noc3C3CC3)sc2c1` [Example 5, 2-(((3R,3aR,6R,6aR)-6-((5-cyclopropyl-3-(2,6-dichlorophenyl)isoxazol-4-yl)methoxy)hexahydrofuro[3,2-b]furan-3-yl)oxy)-4-fluorobenzo[d]thiazole-6-carboxylic acid], the pEC50 is 6.70 to 7.52 and the Emax was 55%.

`O=C(O)c1cc(F)c2nc(O[C@@H]3CO[C@H]4[C@@H]3OC[C@H]4OCc3c(-c4ccccc4OC(F)(F)F)noc3C3CC3)sc2c1` [Example 6]: the negative-log EC50 (pEC50) was 6.70 to 7.52 and the Emax amounted to 56%.

As to `CC1(S(=O)(=O)NC(=O)c2ccc3nc(O[C@@H]4CO[C@H]5[C@@H]4OC[C@H]5OCc4c(-c5c(Cl)cccc5Cl)noc4C4CC4)sc3c2)CC1` [Example 8, 2-(((3R,3aR,6R,6aR)-6-((5-cyclopropyl-3-(2,6-dichlorophenyl)isoxazol-4-yl)methoxy)hexa hydrofuro[3,2-b]furan-3-yl)oxy)-N-((1-methylcyclopropyl)sulfonyl)benzo-[d]thiazole-6-carboxamide], the pEC50 is 6.00 to 6.70 and the Emax was 20%.

Take `O=C(NS(=O)(=O)C1CC1)c1ccc2nc(O[C@@H]3CO[C@H]4[C@@H]3OC[C@H]4OCc3c(-c4c(Cl)cccc4Cl)noc3C3CC3)sc2c1` [Example 9]: the pEC50 was 6.00 to 6.70 and the Emax came to 5.5%.

Consider `CC(C)Oc1cc(C(=O)NS(=O)(=O)N2CCCC2)cc2sc(O[C@@H]3CO[C@H]4[C@@H]3OC[C@H]4OCc3c(-c4c(Cl)cccc4Cl)noc3C3CC3)nc12` [Example 10], for which the pEC50 is more than 7.52 and the Emax stood at 103%.

On to `CC(C)Oc1cc(C(=O)NS(=O)(=O)C2CC2)cc2sc(O[C@@H]3CO[C@H]4[C@@H]3OC[C@H]4OCc3c(-c4c(Cl)cccc4Cl)noc3C3CC3)nc12` [Example 11], for which the pEC50 is 6.70 to 7.52 and the Emax was found to be 57%.

With `CC(C)Oc1cc(C(=O)NS(=O)(=O)C2(C)CC2)cc2sc(O[C@@H]3CO[C@H]4[C@@H]3OC[C@H]4OCc3c(-c4c(Cl)cccc4Cl)noc3C3CC3)nc12` [Example 12], the negative logarithm of the EC50 (pEC50) is 6.70 to 7.52 and the Emax is 70%.

On to `CC(C)Oc1cc(C(=O)NS(=O)(=O)N2CCCCC2)cc2sc(O[C@@H]3CO[C@H]4[C@@H]3OC[C@H]4OCc3c(-c4c(Cl)cccc4Cl)noc3C3CC3)nc12` [Example 13], for which the negative-log EC50 (pEC50) was more than 7.52 and the Emax worked out at 96.5%.

For `O=C(O)c1ccc2nc(O[C@@H]3CO[C@H]4[C@@H]3OC[C@H]4OCc3c(-c4c(Cl)cccc4Cl)noc3C3CC3)sc2c1` [Example 14], the pEC50 was 6.70 to 7.52 and the Emax was 67.5%.

Regarding `O=C(O)c1ccc2nc(O[C@@H]3CO[C@H]4[C@@H]3OC[C@H]4OCc3c(-c4c(Cl)cccc4Cl)noc3C3CC3)ccc2c1` [Example 16], the pEC50 is 6.70 to 7.52 and the Emax was determined as 85%.

Regarding `CC(C)Oc1cc(C(=O)O)cc2sc([C@@]3(O)CO[C@@H]4[C@H](OCc5c(-c6c(Cl)cccc6Cl)noc5C5CC5)CO[C@@H]43)nc12` [Example 17], the negative-log EC50 (pEC50) was less than 6.00 and the Emax amounted to 9%.

Consider `CC(C)Oc1cc(C(=O)O)cc2sc([C@]3(F)CO[C@@H]4[C@H](OCc5c(-c6c(Cl)cccc6Cl)noc5C5CC5)CO[C@@H]43)nc12` [Example 18], for which the pEC50 is 6.00 to 6.70 and the Emax was 45%.

For the compound `CC(C)Oc1cc(C(=O)O)cc2sc(N[C@@H]3CO[C@H]4[C@@H]3OC[C@H]4OCc3c(-c4c(Cl)cccc4Cl)noc3C3CC3)nc12` [Example 19], the pEC50 was 6.00 to 6.70 and the Emax was 82.3%.

Consider `CC(C)Oc1cc(C(=O)O)cc2sc(N3CCN4C[C@@H](OCc5c(-c6c(Cl)cccc6Cl)noc5C5CC5)C[C@@H]4C3)nc12` [Example 20, 2-((7S,8aR)-7-((5-cyclopropyl-3-(2,6-dichlorophenyl)isoxazol-4-yl)methoxy)hexahydropyrrolo[1,2-a]pyrazin-2(1H)-yl)-4-isopropoxybenzo[d]thiazole-6-carboxylic acid], for which the pEC50 was 6.00 to 6.70 and the Emax was found to be 44%.

For the compound `CC(C)Oc1cc(C(=O)O)cc2sc(N3CCN4C[C@H](OCc5c(-c6c(Cl)cccc6Cl)noc5C5CC5)C[C@H]4C3)nc12` [Example 21], the negative logarithm of the EC50 (pEC50) was 6.70 to 7.52 and the Emax stood at 72%.

Consider `CC(C)Oc1cc(C(=O)O)cc2sc(N3CCN4C[C@H](OCc5c(-c6c(Cl)cccc6Cl)noc5C5CC5)C[C@@H]4C3)nc12` [Example 22, 2-((7R,8aR)-7-((5-cyclopropyl-3-(2,6-dichlorophenyl)isoxazol-4-yl)methoxy)hexahydropyrrolo[1,2-a]pyrazin-2(1H)-yl)-4-isopropoxybenzo[d]thiazole-6-carboxylic acid], for which the pEC50 was 6.70 to 7.52 and the Emax came to 82%.

For `CC(C)Oc1cc(C(=O)O)cc2sc(O[C@@H]3CO[C@H]4[C@@H]3OC[C@H]4OCc3c(-c4ccccc4OC(F)(F)F)noc3C3CC3)nc12` [Example 23], the pEC50 is more than 7.52 and the Emax stood at 103%.

In the case of `CC(C)Oc1cc(C(=O)NS(=O)(=O)C2(C)CC2)cc2sc(O[C@@H]3CO[C@H]4[C@@H]3OC[C@H]4OCc3c(-c4ccccc4OC(F)(F)F)noc3C3CC3)nc12` [Example 24], the pEC50 is 6.70 to 7.52 and the Emax stood at 78%.

For `CC(C)Oc1cc(C(=O)NS(=O)(=O)C2CC2)cc2sc(O[C@@H]3CO[C@H]4[C@@H]3OC[C@H]4OCc3c(-c4ccccc4OC(F)(F)F)noc3C3CC3)nc12` [Example 25], the pEC50 was 6.70 to 7.52 and the Emax is 66%.

Consider `CC(C)Oc1cc(C(=O)O)cc2sc(N3C[C@H]4[C@@H](OCc5c(-c6c(Cl)cccc6Cl)noc5C5CC5)CO[C@H]4C3)nc12` [Example 26], for which the pEC50 is 6.00 to 6.70 and the Emax came out at 7%.

Turning to `CC(C)Oc1cc(C(=O)O)cc2sc(N3C[C@H]4C[C@@H](NCc5c(-c6c(Cl)cccc6Cl)noc5C5CC5)C[C@H]4C3)nc12` [Example 28], the pEC50 is 6.00 to 6.70 and the Emax came to 57%.

As to `CC(C)Oc1cc(C(=O)O)cc2sc(N3CCN4C(=O)[C@@H](OCc5c(-c6c(Cl)cccc6Cl)noc5C5CC5)C[C@@H]4C3)nc12` [Example 29], the pEC50 was less than 6.00 and the Emax was 21%.

For `CC(C)Oc1cc(C(=O)O)cc2sc(N3CCN4C(=O)[C@H](OCc5c(-c6c(Cl)cccc6Cl)noc5C5CC5)C[C@H]4C3)nc12` [Example 30], the negative-log EC50 (pEC50) was 6.70 to 7.52 and the Emax was determined as 70%.

On to `CC(C)Oc1cc(C(=O)O)cc2sc(N3CCN4C(=O)[C@@H](OCc5c(-c6c(Cl)cccc6Cl)noc5C5CC5)C[C@H]4C3)nc12` [Example 31], for which the pEC50 was 6.70 to 7.52 and the Emax stood at 110%.

In general, pEC50 refers to the EC50 on a negative log10 scale, so that one unit is a factor of ten.

Source of the values: patent US10689391B2, “Isoxazole analogs as FXR agonists and methods of use thereof” (Enanta Pharmaceuticals, Inc., priority 2017, dated 2020).
